# Read-outs that look alike come from different tables or passages of the source.
# Key:
# [1] = tested on: blood pressure of SHR; experiment: Antihypertensive effect by single oral administration, SHR, modified tail-cuff method; assay type: in vivo, rat (spontaneously hypertensive rats
# From the text: The effect was examined through both direct and modified tail-cuff methods using male SHRs aged 25 to 30 weeks and weighing about 300 g.
# [2] = rat, in vivo, po
# [3] = tested on: rat; conditions: oral
# [4] = tested on: rats
# Description: The rate were bred in individual cages under the following conditions: temperature, 23°±2° C.; relative humidity, 55±5%; free taking of solid food (CE-2, CLEA Japan, Inc.) and tap water.
# Volume of the medicine solution for one administration was dicided to be 1 ml per 100 g of weight, and the dose was administered once a day, 6 times a week over 5 weeks. The control group received the same volume of 0.2% carboxymethyl cellulose solution.
# [5] = Effect on body temperature; assay type: in vivo, mouse (dd-strain); conditions: 25 mg/kg oral
# [6] = tested on: motorability; experiment: Effect on motorability (rotating bar); assay type: in vivo, mouse (dd-strain); conditions: 25 mg/kg oral; for Number of Animals that fell: 10 examined
# Description: 25 mg/kg of MR were administered to 10 mice per one group. The mice were put on a wooden bar of 2 cm diameter which rotated at 10 r.p.m., and the number of mice which fell down from the bar was counted.
# [7] = Excretion into urine after oral administration; conditions: rabbit, 10 mg/kg
# From the text: Urine was collected with urine bladder catheter for rabbits and metabolic cages for rats.
# [8] = tested on: rats; experiment: Sub-acute toxicity: histopathological examination; assay type: in vivo, rat (SD (SPF)); conditions: for Adrenal Hypertrophy: 5 rats
# From the text: Rats were sacrificed under anesthesia with ether.
# Five samples were randomly selected from each group, and paraffin-sectionedpreparations of the organs were made by a routine method. The preparations were stained with hematoxyline-eosin stain and Luxol-fast blue (central nervous system only) and examined histopathologically.
# [9] = Solubility; assay type: physicochemical
# [10] = tested on: hexobarbital hypnosis
# Description: Period of induced sleeping was measured with righting reflex as a parameter.
# [11] = tested on: noradrenaline in heart and adrenals; conditions: in vivo; cited from earlier work
# [12] = tested on: central nervous system; conditions: in vivo; cited from earlier work
# [13] = tested on: central nervous system; experiment: Behavior-pharmacological studies, central nervous system depressing effect; design: species or system mouse (dd-strain); conditions: mouse, in vivo
# From the text: Effects on central nervous system were studied as follows: […]
structure (smiles),measurement,setting,value
"COC(=O)[C@H]1[C@H]2C[C@@H]3c4[nH]c5cc(OC)ccc5c4CCN3C[C@H]2C[C@@H](O)[C@@H]1OC [MR, methylreserpate]",maximum rate of blood pressure decrease,[1]; 6.25 mg/kg oral,31.7%
same,time to reach original blood pressure level,[1]; 6.25 mg/kg oral,48 h
same,time to reach original blood pressure level,[1]; 25 mg/kg oral,72 h
same,maximum rate of blood pressure decrease,[1]; 25.0 mg/kg oral,42.5%
same,time from which blood pressure gradually returned,"[1]; after plateau, 6.25, 12.5 and 25 mg/kg oral",about 12 hours
same,metabolism,[2],hardly metabolized
same,LD50 as multiple of clinical dosage of RCN,[3],"about 24,000 times"
same,Eosino.,"[4]; 25.0 mg/kg, day 10",1.5±0.3%
same,Lymph.,"[4]; 25.0 mg/kg, day 10",81.8±2.0%
same,Mono.,"[4]; 25.0 mg/kg, day 10",2.1±0.4%
same,Neutro.,"[4]; 25.0 mg/kg, day 10",14.6±1.6%
same,Platelet,"[4]; 25.0 mg/kg, day 10",853±32.6 ×10^3 /mm^3
same,Eosino.,"[4]; 25.0 mg/kg, day 20",1.8±0.4%
same,Lymph.,"[4]; 25.0 mg/kg, day 20",74.8±2.1%
same,Mono.,"[4]; 25.0 mg/kg, day 20",1.2±0.3%
same,Neutro.,"[4]; 25.0 mg/kg, day 20",22.8±2.2%
same,Eosino.,"[4]; 25.0 mg/kg, day 30",1.4±0.6%
same,Lymph.,"[4]; 25.0 mg/kg, day 30",78.0±2.0%
same,Mono.,"[4]; 25.0 mg/kg, day 30",1.5±0.5%
same,Neutro.,"[4]; 25.0 mg/kg, day 30",19.2±1.9%
same,Platelet,"[4]; 25.0 mg/kg, day 30",658±26.8 ×10^3 /mm^3
same,Eosino.,"[4]; 50.0 mg/kg, day 10",1.8±0.4%
same,Lymph.,"[4]; 50.0 mg/kg, day 10",82.3±1.1%
same,Mono.,"[4]; 50.0 mg/kg, day 10",2.4±0.3%
same,Neutro.,"[4]; 50.0 mg/kg, day 10",13.5±0.8%
same,Platelet,"[4]; 50.0 mg/kg, day 10",861±33.5 ×10^3 /mm^3
same,Eosino.,"[4]; 50.0 mg/kg, day 20",1.3±0.4%
same,Lymph.,"[4]; 50.0 mg/kg, day 20",75.0±2.3%
same,Mono.,"[4]; 50.0 mg/kg, day 20",1.6±0.3%
same,Neutro.,"[4]; 50.0 mg/kg, day 20",22.1±2.2%
same,Eosino.,"[4]; 50.0 mg/kg, day 30",2.6±0.5%
same,Lymph.,"[4]; 50.0 mg/kg, day 30",78.7±1.8%
same,Mono.,"[4]; 50.0 mg/kg, day 30",1.2±0.2%
same,Neutro.,"[4]; 50.0 mg/kg, day 30",17.5±1.8%
same,Platelet,"[4]; 50.0 mg/kg, day 30",656±36.7 ×10^3 /mm^3
same,Eosino.,"[4]; 100.0 mg/kg, day 10",2.3±0.5%
same,Lymph.,"[4]; 100.0 mg/kg, day 10",77.1±2.2%
same,Mono.,"[4]; 100.0 mg/kg, day 10",2.3±0.3%
same,Neutro.,"[4]; 100.0 mg/kg, day 10",18.3±2.3%
same,Platelet,"[4]; 100.0 mg/kg, day 10",782±31.2 ×10^3 /mm^3
same,Eosino.,"[4]; 100.0 mg/kg, day 20",1.2±0.3%
same,Lymph.,"[4]; 100.0 mg/kg, day 20",69.6±3.0%
same,Mono.,"[4]; 100.0 mg/kg, day 20",1.6±0.3%
same,Neutro.,"[4]; 100.0 mg/kg, day 20",27.6±2.9%
same,Eosino.,"[4]; 100.0 mg/kg, day 30",1.4±0.4%
same,Lymph.,"[4]; 100.0 mg/kg, day 30",75.2±1.6%
same,Mono.,"[4]; 100.0 mg/kg, day 30",1.5±0.3%
same,Neutro.,"[4]; 100.0 mg/kg, day 30",21.9±1.9%
same,Platelet,"[4]; 100.0 mg/kg, day 30",696±13.9 ×10^3 /mm^3
same,Eosino.,"[4]; 200.0 mg/kg, day 10, 4 rats",0.8±0.5%
same,Lymph.,"[4]; 200.0 mg/kg, day 10, 4 rats",36.3±12%
same,Mono.,"[4]; 200.0 mg/kg, day 10, 4 rats",1.3±0.5%
same,Neutro.,"[4]; 200.0 mg/kg, day 10, 4 rats",61.8±12%
same,Platelet,"[4]; 200.0 mg/kg, day 10, 4 rats",592±54.7 ×10^3 /mm^3
same,body temperature (rectal),[5]; 1 hour after,36.6±0.2 °C
same,body temperature (rectal),[5]; 2 hours after,36.2± 0.2 °C
same,body temperature (rectal),[5]; 3 hours after,35.6±0.1 °C
same,effect on body temperature,[5]; 3 hours after,a slight decrease in the temperature
same,Number of Animals that fell,[6]; 1 hour after,0 Number of Animals
same,Number of Animals that fell,[6]; 2 hours after,2 Number of Animals
same,effect on motorability,[6]; 3 hours after,slight suppression of motorability
same,Number of Animals that fell,[6]; 3 hours after,4 Number of Animals
same,dose excreted at 48 h,[7],10 to 15%
same,Adrenal Hypertrophy,[8]; 25.0 mg/kg,- - - + -
same,Adrenal Hypertrophy,[8]; 50.0 mg/kg,+ + ++ + +
same,Adrenal Hypertrophy,[8]; 100.0 mg/kg,+ + + + +
same,Lung Alveolar wall Congestion,"[8]; 200.0 mg/kg, 5 dead rats",+ ++ ++ ++ +++
same,Lung Alveolar wall Pneumonia,"[8]; 200.0 mg/kg, 5 dead rats",++ ++ ++ + +
same,Lung Alveolus Pneumonia,"[8]; 200.0 mg/kg, 5 dead rats",- - - - -
same,Lung Bronchus Bronchitis,"[8]; 200.0 mg/kg, 5 dead rats",- - - - -
same,Pancreas,"[8]; 200.0 mg/kg, 5 dead rats",- - - - -
same,Prostate,"[8]; 200.0 mg/kg, 5 dead rats",- - - - /
same,Salivary Mucous gl.,"[8]; 200.0 mg/kg, 5 dead rats",- - - - -
same,Salivary Serous gl. Atrophy,"[8]; 200.0 mg/kg, 5 dead rats",- - - - -
same,Spleen Atrophy,"[8]; 200.0 mg/kg, 5 dead rats",- - - - -
same,Spleen Congestion,"[8]; 200.0 mg/kg, 5 dead rats",++ ++ ++ + +
same,Spleen Haemosiderosis,"[8]; 200.0 mg/kg, 5 dead rats",+ + + + +
same,Stomach,"[8]; 200.0 mg/kg, 5 dead rats",- - - - -
same,Testis,"[8]; 200.0 mg/kg, 5 dead rats",- - - - -
same,Thyroid,"[8]; 200.0 mg/kg, 5 dead rats",/ - - - /
same,Thyroid Atrophy,"[8]; 200.0 mg/kg, 5 dead rats",+++ / +++ / /
same,Urine bladder,"[8]; 200.0 mg/kg, 5 dead rats",- - - - -
same,Bone marrow Hypoplasia,"[8]; rat, in vivo",- - - - -
same,Central nerve,"[8]; rat, in vivo",- - - - -
same,Heart Endocardium,"[8]; rat, in vivo",- - - - -
same,Heart Epicardium,"[8]; rat, in vivo",- - - - -
same,Heart Myocardium Focal collapse,"[8]; rat, in vivo",+ - - + -
same,Heart finding,"[8]; rat, in vivo",focal collapse of heart muscles
same,Hypophysis,"[8]; rat, in vivo",- - - - -
same,Intestine,"[8]; rat, in vivo",- - - - -
same,Kidney,"[8]; rat, in vivo",- - - - -
same,Liver Glisson's capsule Cell inf.,"[8]; rat, in vivo",- + + + +
same,Liver Kupffer cell Swelling,"[8]; rat, in vivo",- - + + -
same,Liver cell Degeneration,"[8]; rat, in vivo",- - - - -
same,Liver cell cord Cell inf.,"[8]; rat, in vivo",- - + - -
same,Liver cell cord Congestion,"[8]; rat, in vivo",- - - - -
same,Liver: Glisson's capsule or liver cell cords; Kupffer cells,"[8]; rat, in vivo","lymphocytic cell infiltration in Glisson's capsule or liver cell cords, and swelling of Kupffer cells"
same,Lung Alveolar wall Congestion,"[8]; rat, in vivo",- - - - -
same,Lung Alveolar wall Pneumonia,"[8]; rat, in vivo",- - - - -
same,Lung Alveolus Pneumonia,"[8]; rat, in vivo",- + - - -
same,Lung Bronchus Bronchitis,"[8]; rat, in vivo",- - - - +
same,Lymph node,"[8]; rat, in vivo",- - - - -
same,Pancreas,"[8]; rat, in vivo",- - - - -
same,Prostate,"[8]; rat, in vivo",- - - - -
same,Salivary Mucous gl.,"[8]; rat, in vivo",- - - - -
same,Salivary Serous gl. Atrophy,"[8]; rat, in vivo",- - - - -
same,Spleen Atrophy,"[8]; rat, in vivo",- - - - -
same,Spleen Congestion,"[8]; rat, in vivo",- - - - -
same,Spleen Haemosiderosis,"[8]; rat, in vivo",+ + + + +
same,Stomach,"[8]; rat, in vivo",- - - - -
same,Testis,"[8]; rat, in vivo",- - - - -
same,Thymus Atrophy,"[8]; rat, in vivo",- - - - -
same,Thyroid,"[8]; rat, in vivo",- - - - -
same,Urine bladder,"[8]; rat, in vivo",- - - - -
same,kidney histopathology,"[8]; rat, in vivo",no pathological change
same,other organs,"[8]; rat, in vivo",No other pathological change
same,pathological change of adrenal,"[8]; rat, in vivo",reversible hypertrophy of cortex
same,stomach mucous,"[8]; rat, in vivo",no pathological change of stomach mucous
same,solubility in chloroform,[9],easily soluble
same,solubility in ethanol,[9],easily soluble
same,solubility in methanol,[9],easily soluble
same,solubility in water,[9],hardly soluble
same,Hypnotic Time,[10]; 25 mg/kg oral,159 ± 7 s
same,Sleeping Time,[10]; 25 mg/kg oral,34.2 ± 6.7 min
same,Hypnotic Time,"[10]; mouse, in vivo",144 ± 7 s
same,Sleeping Time,"[10]; mouse, in vivo",32.9 ± 4.4 min
same,influence on time to induce sleep and sleeping period,"[10]; mouse, in vivo",did not influence
same,noradrenaline in heart and adrenals,[11],slight decrease of noradrenaline in heart and adrenals
same,inhibitory action of central nervous system,[12],less than that of RSP
same,central nervous system depressing effect compared with RSP,[13],weaker than that of RSP
